Results reported in ChEMBL document CHEMBL5365393, “Comprehensive coverage on anti-mycobacterial endeavour reported during 2022” (Eur J Med Chem, 2023).
≈ marks a conversion by molar mass, not a printed value.

Test system: Mycobacterium tuberculosis variant bovis
Assay: Antibacterial activity against Mycobacterium bovis BCG assessed as inhibition of bacterial growth incubated for 15 days by REMA method
Type: functional
Conditions: 360 h, time 15 day

N#Cc1cc(OCCOc2ccccc2)cc(-c2ccc(C(=O)O)o2)c1
MIC99: 63 µM (≈ 22 µg/mL)
